Among the data in ChEMBL document CHEMBL1201862, “PubChem BioAssay data set” (2004) are CC50, AC50 and EC50 values, retold here.

The nature of series [1]: viability of uninfected HEp-2 cells – cell-based, HTS, cytotoxicity control for RSV inhibitor project, dose response (AID 2410). It is filed as functional. The note with it: human respiratory syncytial virus.
For series [2], the target named is Cytochrome P450 2C9 (Homo sapiens, UniProt P11712).
In series [3] the target is Cytochrome P450 2C19 (Homo sapiens, UniProt P33261). In words: Cytochrome panel assay with activity outcomes. Panel member name: p450-cyp2c19 Compounds with AC50 equal or less than 10 uM are considered active. Format: functional.
Series [4] is described as follows: Luminescence Cell-Based Dose Retest to Confirm Inhibitors of Cancer Stem Cells. [Related pubchem assays (depositor defined):AID2717, AID2721]. It is filed as functional. The settings on record: Homo sapiens.
Series [5] is described as follows: NIH3T3 cell viability loss – ATP luminescence, mouse fibroblasts, counter-screen, dose response (AID 2010).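 Note: cells exposed to compound for about 90 hours before reading.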 It is filed as functional, cell-based. Background: A counterscreen serves to expose hits that act by an unwanted route or on another target.
The nature of series [6]: Trypanosoma cruzi growth suppression in host cells – NIH3T3 host cells, beta-gal luminescence, confirmation (AID 2044).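 Note: intracellular parasites grown in NIH/3T3 mouse fibroblasts as host cells; luminescent beta-galactosidase reporter signal from transgenic T. cruzi replicating inside host cells; inhibitors lower the luminescence signal.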 It is filed as functional, cell-based.
For series [7], the system named is Streptococcus sp. 'group A'. The series can be described thus: Streptococcus pyogenes SK(-)GAS viability under kanamycin – luminescence, BacTiterGlo, confirmation, counter-screen for streptokinase expression inhibitor project, dose response (AID 1900). Format: functional, organism-based.
In series [8] the test system is Streptococcus. The series can be described thus: GAS UMAA2166 growth inhibition – luminescence, BacTiterGlo, counter-screen for streptokinase expression inhibitor project, dose response (AID 1915).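 Note: potency for reduction of bacterial viability or growth.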 Format: functional, organism-based.
The target of series [9] is Cytochrome P450 3A4 (Homo sapiens, UniProt P08684).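 Note: CYP3A4 tested as one member of a cytochrome P450 panel screen.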
Series [10] can be described thus: reduction of Shn3 3'UTR-driven luciferase in osteoblasts – cell-based, Clone20 osteoblasts, firefly luciferase, cherry-picked, dose response (AID 624132).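 Note: firefly luciferase luminescence from reporter carrying the Shn3 3'UTR in osteoblasts.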 It is filed as functional.

Activity calls are given as the source filed them.

One may read the CC50 as the concentration at which the toxic effect on the cells reaches its halfway point. As a reminder, the AC50 is the midpoint of the concentration-response curve, whichever way the signal moves. What is called EC50 is the concentration giving half of the maximal effect.

Sequence of Cytochrome P450 3A4 (P08684 whole entry): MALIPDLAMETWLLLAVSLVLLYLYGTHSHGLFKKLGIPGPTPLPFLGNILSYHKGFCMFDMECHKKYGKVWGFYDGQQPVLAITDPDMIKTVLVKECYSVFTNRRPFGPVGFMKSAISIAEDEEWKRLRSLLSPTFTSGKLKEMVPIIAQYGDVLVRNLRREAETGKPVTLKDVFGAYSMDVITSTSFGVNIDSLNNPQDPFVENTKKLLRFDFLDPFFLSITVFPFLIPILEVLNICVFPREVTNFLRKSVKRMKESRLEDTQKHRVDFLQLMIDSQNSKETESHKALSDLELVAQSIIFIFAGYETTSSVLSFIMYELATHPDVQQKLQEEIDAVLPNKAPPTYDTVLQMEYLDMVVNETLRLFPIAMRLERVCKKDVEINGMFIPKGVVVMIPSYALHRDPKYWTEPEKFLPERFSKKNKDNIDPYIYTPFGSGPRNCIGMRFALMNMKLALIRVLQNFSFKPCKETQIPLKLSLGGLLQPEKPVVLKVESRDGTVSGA
Sequence of Cytochrome P450 2C9 (P11712 whole entry): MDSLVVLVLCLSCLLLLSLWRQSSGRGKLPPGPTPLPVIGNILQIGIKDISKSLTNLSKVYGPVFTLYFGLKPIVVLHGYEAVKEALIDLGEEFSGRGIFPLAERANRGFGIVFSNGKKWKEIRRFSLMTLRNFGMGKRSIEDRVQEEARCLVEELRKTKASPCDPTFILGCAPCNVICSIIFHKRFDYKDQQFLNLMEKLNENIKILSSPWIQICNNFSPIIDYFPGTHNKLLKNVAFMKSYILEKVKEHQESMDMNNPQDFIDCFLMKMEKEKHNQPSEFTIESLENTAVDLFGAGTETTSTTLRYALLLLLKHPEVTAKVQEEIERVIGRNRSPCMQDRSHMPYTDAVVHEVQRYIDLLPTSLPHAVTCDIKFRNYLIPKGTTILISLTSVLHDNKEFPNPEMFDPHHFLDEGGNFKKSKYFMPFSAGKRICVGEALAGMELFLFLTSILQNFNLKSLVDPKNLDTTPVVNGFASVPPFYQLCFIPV
Sequence of Cytochrome P450 2C19 (P33261 whole entry): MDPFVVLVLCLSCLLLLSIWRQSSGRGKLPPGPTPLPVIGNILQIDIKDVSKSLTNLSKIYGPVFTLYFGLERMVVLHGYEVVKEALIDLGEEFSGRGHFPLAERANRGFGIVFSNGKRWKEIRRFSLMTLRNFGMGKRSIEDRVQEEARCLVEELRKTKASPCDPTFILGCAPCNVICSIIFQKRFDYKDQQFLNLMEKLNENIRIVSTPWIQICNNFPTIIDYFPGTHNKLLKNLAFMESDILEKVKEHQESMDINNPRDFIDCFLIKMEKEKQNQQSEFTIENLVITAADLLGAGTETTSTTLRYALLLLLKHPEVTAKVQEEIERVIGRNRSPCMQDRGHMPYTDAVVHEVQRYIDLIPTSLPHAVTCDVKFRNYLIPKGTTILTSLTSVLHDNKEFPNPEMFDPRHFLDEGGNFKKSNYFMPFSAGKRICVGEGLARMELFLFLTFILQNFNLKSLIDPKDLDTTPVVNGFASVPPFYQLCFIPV

On to `CCOc1ccccc1NC(=O)CSc1nc2c(c(=O)n1C)SC(C)C2` (centres undefined), for which the CC50 in [1] was 35.2 µM (active).

Turning to `CCCCCCCCCCCCCC(=O)O[C@H]1[C@@H](C)[C@@]2(O)[C@@H](C=C(CO)C[C@]3(O)C(=O)C(C)=C[C@@H]23)C2C(C)(C)[C@]21OC(C)=O` (some centres undefined), the AC50 in series [2] was 10 µM (inconclusive).

As to `FC(F)(F)c1cnc(N2CCC(=NOCc3ccc(Cl)cc3)CC2)c(Cl)c1`, the AC50 in series [3] (read-out: AC50) is 20 µM (inconclusive).

Turning to `N#Cc1ccc(C(c2ccc(C#N)cc2)n2cncn2)cc1` [LETROZOLE], the AC50 in [3] (read-out: AC50) is 7.94 µM (inconclusive).

With `O=C(Nc1ccccc1N1CCOCC1)c1cc2c(s1)CCCCC2`, in [1], the CC50 was > 50 µM (active).

For the compound `COc1cccc(-c2nc(CS(=O)(=O)CC(=O)NCCCOC(C)C)c(C)o2)c1`, the AC50 in series [2] was 11.2 µM (inconclusive); in series [3] (read-out: AC50), 17.8 µM (inconclusive).

With `COc1ccc(N2CCN(C(=O)CSc3nnc4c(C)cc5cc(C)ccc5n34)CC2)cc1`, the CC50 in series [1] was > 50 µM (active).

Turning to `Cc1cccc(-c2nc(Nc3cccc(O)c3)c3ccccc3n2)c1`, in series [4], the AC50 was 3.88 µM (active).

Take `CC1CC(C)CN(C(=O)c2cc3cc(Br)cc(Br)c3o2)C1` (centres undefined): the CC50 in series [1] is 18.9 µM (active).

With `CCN1CCN(c2ccc(S(=O)(=O)N3CCOCC3)cc2NC(=O)CCC(C)C)CC1`, the EC50 was > 60 µM (not active) in series [5] and 1.34 µM (active) in series [6].

Regarding `COc1ccc(C)cc1Nc1n[n+](-c2ccccc2)c(-c2cccc(Cl)c2Cl)s1`, the EC50 was 15.4 µM (active) in [5] and 3 µM (active) in series [6].

Consider `C=C(Br)CN(C)CC(=C)Br`, for which the AC50 entry in [3] is given as “inconclusive”.

Regarding `CN(CCc1ccccn1)Cc1ccc(Cl)cc1Cl`, the AC50 in series [2] was 6.31 µM (inconclusive).

Consider `COc1ccc2cc(S(=O)(=O)n3cnc(C)c3)ccc2c1`, for which the CC50 in series [1] is > 50 µM (active).

As to `COCCn1c(=O)c(CCc2ccccc2)nc2cnc(OC)nc21`, in [2], the AC50 was 20 µM (inconclusive).

Turning to `C[C@]12CCC3C(CC[C@H]4CC(O)CC[C@]34C)C1CC/C2=N/O` (some centres undefined), the CC50 in series [1] was > 50 µM (active).

With `COc1c(N2CCN(C(S)=Nc3ccc(F)cc3)C(C)C2)c(F)cc2c(=O)c(C(=O)O)cn(C3CC3)c12` (centres undefined), the values for the EC50 in series [7] and in series [8] were 4.5 µM (active) and 5.79 µM (active), respectively.

`Cc1ccc(S(=O)(=O)NCC(=O)N(CC(=O)NCc2ccco2)Cc2cccs2)cc1`: the AC50 in series [2] was 15.8 µM (inconclusive).

Regarding `CCOC(=O)CSc1cc(C(F)(F)F)nc(-c2ccccn2)n1`, the AC50 in [2] was 39.8 µM (inconclusive); in series [3] (read-out: AC50) it was 17.8 µM (inconclusive).

Regarding `Cc1cccc2cc(CN(Cc3nnnn3Cc3ccco3)C3CCCC3)c3nnnn3c12`, the half-maximal cytotoxic concentration (CC50) in series [1] was > 50 µM (active).

On to `Cc1nc(N2CCC(C)CC2)c2c(C)c(C(=O)Nc3ccc(C(F)(F)F)cc3)sc2n1`, for which the values for the EC50 in series [5] and in [6] were > 60 µM (inconclusive) and 1.41 µM (active), respectively.

Regarding `C=CCn1c(SCC(=O)NC2CCCCC2)nnc1C1CCCCC1`, the AC50 in [2] is 28.2 µM (inconclusive); in [3], “inconclusive”.

Regarding `COc1ccc2c(=O)cc(-c3ccncc3)oc2c1OC`, the concentration at half-maximal activity (AC50) in [9] is 3.98 µM (inconclusive).

`CC(C)=CCC/C(C)=C/CO/N=C1/[C@H]2O[C@@H]2[C@@H](O)[C@H]2[C@H]1CCn1c(=O)n(Cc3cc4c(cc3Cl)OCO4)c(=O)n12`: the AC50 in [9] was 3.98 µM (inconclusive).

On to `O=S(=O)(c1ccc(Cl)cc1)N1CCN(C2CCN(Cc3ccccc3)CC2)CC1`, for which the EC50 in series [5] was > 60 µM (not active); in series [6], 1.07 µM (active).

`Cc1nn2c(COc3ccc(NC(=O)c4ccccc4)cc3)nnc2c2ccccc12`: the EC50 in series [7] is 0.854 µM (active); in series [8], 0.859 µM (active).

In the case of `CCOC(=O)[C@@H](O)Cc1cnc2ccccc2n1`, the AC50 in [2] is 3.98 µM (inconclusive).

Regarding `N=C(N)N/N=C/c1ccc(Cl)c([N+](=O)[O-])c1`, the results for the EC50 in series [5] and in series [6] were > 60 µM (not active) and 0.108 µM (active), respectively.

For the compound `Cc1ccc(C(=O)N2C3C=CC(C3)C2(C(F)(F)F)C(F)(F)F)cc1` (centres undefined), the AC50 in [2] is 39.8 µM (inconclusive).

Regarding `O=C(O)c1cc2c(ccc3ccccc32)[nH]1`, the CC50 in series [1] was 30.9 µM (active).

Take `CCOc1cc(NC(=O)c2cccc(C)c2)c(OCC)cc1N=C(S)NCC1CCCO1` (centres undefined): in series [2], the concentration at half-maximal activity (AC50) was 7.94 µM (inconclusive).

On to `Clc1ccc(OCCOCCN2CCCCC2)c(Br)c1`, for which the EC50 is 13.2 µM (active) in series [5] and 0.166 µM (active) in series [6].

Take `C/C(=N\c1ccccc1C)C1=C(O)SCC1=O`: the cytotoxic concentration (CC50) in [1] is 32.3 µM (active).

As to `CCOC(=O)c1c(NC(=O)c2nn(CC)cc2Br)sc(C)c1C`, the concentration at half-maximal activity (AC50) in [10] is 11 µM (active).

With `O=C(O)C(Cc1cccs1)C(=O)O`, in series [3], the AC50 result is given as “inconclusive”.

`CC(Oc1ccc(-c2ccccc2)c(F)c1)c1ccn(S(=O)(=O)c2ccc(Cl)cc2)n1` (centres undefined): in series [9], the AC50 is 15.8 µM (inconclusive).

As for `C[C@@H]1O[C@H](O[C@@H]2CC[C@@]3(C=O)[C@H]4CC[C@@]5(C)[C@@H](C6=CC(=O)OC6)CC[C@@]5(O)[C@@H]4CC[C@]3(O)C2)C[C@H](O)[C@@H]1O`, the AC50 in series [9] was 15.8 µM (inconclusive).

With `CCNC(=Nc1ccc(Cl)cc1)c1cccnc1`, the half-maximal activity concentration (AC50) in [9] was 22.4 µM (inconclusive); in series [3] (read-out: AC50) it was 1.78 µM (inconclusive).

As for `c1ccc(Nc2nc(-c3ccncc3)cs2)nc1`, the EC50 in [5] is > 60 µM (not active); in series [6], 0.526 µM (active).

For `CCCn1cnc2c(SCC(=O)O)nc(N)nc21`, the AC50 entry in [3] was “inconclusive”.

As to `ON(CCc1ccccn1)Cc1ccccc1`, the AC50 in [9] was 3.98 µM (inconclusive).

`COc1c(N2CCN(C(=S)Nc3ccc(F)cc3)C(C)C2)c(F)cc2c(=O)c(C(=O)O)cn(C3CC3)c12` (centres undefined): the AC50 in series [3] (read-out: AC50) was 39.8 µM (inconclusive).

On to `C=CCOc1cccc(CNn2cnnc2S)c1`, for which the AC50 was 6.31 µM (inconclusive) in series [2] and 28.2 µM (inconclusive) in series [9].

As for `Oc1nc2ccc(Br)cc2c(-c2ccccc2)c1CN1CCOCC1`, the CC50 in [1] was 48.4 µM (active).

As to `Cc1ccc(-n2nc3c(N4CCC(C(=O)NCc5cccc(F)c5)CC4)nnc(C)c3c2C)cc1`, the half-maximal cytotoxic concentration (CC50) in series [1] was 32.7 µM (active).

As for `COc1cccc(/N=C/c2c[nH]nc2O)c1`, the figures for the AC50 in [2] and in [3] (read-out: AC50) were 20 µM (inconclusive) and 35.5 µM (inconclusive), respectively.

With `CC1CCCC(NC(=O)C2CCCN2S(=O)(=O)c2cccc3nsnc23)C1C` (centres undefined), the CC50 in series [1] was 23.6 µM (active).

Take `CCOc1ccc(N/C(C)=C/C(=O)c2ccc(C)o2)cc1`: the EC50 in series [5] was > 60 µM (not active); in series [6], 2.98 µM (active).

Consider `O=C(Cn1ccnc1)c1ccc(Cl)cc1`, for which the EC50 in series [5] and in series [6] was > 30 µM (not active) throughout.

Regarding `COC(=O)[C@@]1(Cc2ccc(OC)cc2)[C@H]2c3cc(C(=O)N4CCCC4)n(Cc4ccc(OC(F)(F)F)cc4)c3C[C@H]2CN1C(=O)c1ccccc1`, the AC50 in series [3] (read-out: AC50) was 7.94 µM (inconclusive).

`Cc1sc2nc(SCC(=O)C(C)(C)C)n(Cc3ccco3)c(=O)c2c1C`: the AC50 in [3] (read-out: AC50) was 5.01 µM (inconclusive).

For the compound `OCCC1CN(Cc2cccc(C(F)(F)F)c2)CCN1Cc1ccccc1` (centres undefined), the EC50 in [5] is > 60 µM (inconclusive); in series [6] it was 1.33 µM (active).

Consider `CCN1CCN(CC(=O)Nc2ccc(S(=O)(=O)N3C(C)CCCC3C)cc2)CC1` (centres undefined), for which the EC50 in series [5] is > 60 µM (not active); in series [6], 1.07 µM (active).

Turning to `COC(=O)c1cc(NC(=O)c2cc(-c3ccc(Cl)cc3)oc2C(F)(F)F)ccc1N1CCOCC1`, the EC50 in [5] was > 60 µM (not active); in series [6] it was 3.3 µM (active).

Consider `CCOC(=O)c1nnn(-c2nonc2N)c1-c1ccccc1`, for which the AC50 in series [2] was 10 µM (inconclusive).

For `Cc1ccc(C2CC(c3cccs3)=NN2C(=O)CSc2nc3ccccc3o2)cc1` (centres undefined), in [1], the CC50 was 30.2 µM (active).

`Oc1ccc2c3c1O[C@H]1c4oc5ccccc5c4C[C@]4(O)[C@H](C2)N(CC2CC2)CC[C@@]314`: in series [9], the AC50 is 20 µM (inconclusive).

For `CCOc1ccccc1NC(=O)Nc1ccc(CC#N)cc1`, the CC50 in series [1] is 28 µM (active).

For the compound `CCCCCOc1ccc(C(=O)NCC2(c3ccccc3)CCOCC2)cc1`, the half-maximal activity concentration (AC50) in series [9] was 31.6 µM (inconclusive).

`Cc1cc(C(=O)N2CCc3c([nH]c4ccccc34)C2c2cccc(Cl)c2)nn1C` (centres undefined): the results for the EC50 in [5] and in series [6] were > 60 µM (not active) and 2.17 µM (active), respectively.

For `Oc1ccccc1/N=C/c1c[nH]nc1O`, the AC50 is 8.91 µM (inconclusive) in series [2] and “inconclusive” in [3].

`CC(=O)N1CCC2(CC1)CN(c1ccccc1)C2`: the AC50 result in series [3] is recorded as “inconclusive”.

As for `N#C/C(=C\c1ccc(Oc2ccc(C(F)(F)F)cc2[N+](=O)[O-])cc1)c1nc2ccccc2[nH]1`, in [9], the AC50 is 11.2 µM (inconclusive).

For `CC(C)COP(=O)(c1ccc(N(C)C)cc1)C(O)c1ccccc1F` (centres undefined), the AC50 in series [2] is 12.6 µM (inconclusive); in series [9], 3.98 µM (inconclusive).

`Cc1cc(C(=O)COc2ccc(Cl)cc2Br)c(C)n1C`: the CC50 in series [1] is > 50 µM (active).

In the case of `COc1ccc(-c2nc(-c3cc([N+](=O)[O-])ccc3C)c(-c3ccccc3)[nH]2)cc1OC`, the CC50 in series [1] is 21.4 µM (active).
